Test results published in EPA's ToxRefDB 2.

Experiments:
mouse [1] = settings: Prenatal developmental toxicity study, CD-1, Dermal, Topical, dose end: 13 GD, group: maternal
rabbit [2] = settings: Prenatal developmental toxicity study, Dermal, Topical, dose end: 16 GD, group: maternal
rat [3] = settings: Subchronic oral toxicity in rodents, sprague dawley, Feed, dose end: 90 day, group: systemic
dog [4] = settings: Chronic toxicity; beagle; Oral; Feed; dose end: 52 week; group: systemic; systemic / organ weight / thyroid gland / absolute + systemic / organ weight / thyroid gland / relative to body weight + systemic / …
rat [5] = settings: Prenatal developmental toxicity study, sprague dawley, Oral, Gavage/Intubation, dose end: 15 GD
mouse [6] = settings: Carcinogenicity; cd1; Oral; Feed; dose end: 102 week; group: systemic; systemic / organ weight / liver / absolute + systemic / organ weight / liver / relative to body weight
dog [7] = settings: Chronic toxicity, beagle, Oral, Feed, dose end: 8 week, group: systemic
dog [8] = settings: Subchronic oral toxicity in nonrodent, beagle, Feed, dose end: 13 week, group: systemic, systemic / in life observation / body weight / body weight + systemic / in life observation / body weight / body weight gain + systemic / in…
rat [9] = settings: Combined chronic toxicity/carcinogenicity, sprague dawley, Oral, Feed, dose end: 104 week, group: systemic
mouse [10] = settings: Carcinogenicity, cd1, Oral, Feed, dose end: 8 week, group: systemic
rat [11] = settings: Prenatal developmental toxicity study, sprague dawley, Oral, Gavage/Intubation, dose end: 17 GD, group: maternal
rat [12] = settings: Fertility (Segment I), sprague dawley, Oral, Gavage/Intubation, dose end: 2 week, group: parental
rat [13] = settings: Fertility (Segment I), sprague dawley, Oral, Gavage/Intubation, dose end: 7 GD
dog [14] = settings: Sub-acute repeat dose toxicity; beagle; Oral; Capsule; dose end: 1 month; group: systemic; systemic / clinical chemistry / triglycerides / triglycerides
rabbit [15] = settings: Prenatal developmental toxicity study; new zealand white; Oral; Gavage/Intubation; dose end: 19 GD; group: maternal; systemic / in life observation / body weight / body weight + systemic / in life observation / body weight / body weight gain + systemic / in…
rat [16] = settings: Fertility (Segment I), sprague dawley, Oral, Gavage/Intubation, dose end: 7 GD; remark: listed apart in the source
rabbit [17] = settings: Prenatal developmental toxicity study; new zealand white; Oral; Gavage/Intubation; dose end: 19 GD; group: maternal; systemic / in life observation / body weight / body weight gain
rat [18] = settings: Chronic toxicity; sprague dawley; Oral; Gavage/Intubation; dose end: 6 month; group: systemic; systemic / clinical chemistry / sodium / sodium + systemic / clinical chemistry / bilirubin / total bilirubin + systemic / clinical …
rat [19] = settings: Prenatal developmental toxicity study, sprague dawley, Oral, Gavage/Intubation, dose end: 17 GD
rat [20] = settings: Sub-acute repeat dose toxicity, sprague dawley, Oral, Gavage/Intubation, dose end: 31 day, group: systemic
[21] = systemic / in life observation / body weight / body weight gain + systemic / in life observation / clinical signs / erythema + systemic / in…
[22] = systemic / clinical chemistry / albumin-globulin ratio / albumin-globulin ratio + systemic / clinical chemistry / phosphorus / phosphate
[23] = systemic / hematology / erythrocyte (rbc) count differential / erythrocyte (rbc) + systemic / hematology / leukocyte (wbc) count …
[24] = group: developmental, developmental / developmental malformation / bone / short
[25] = group: maternal, systemic / in life observation / mortality / mortality + reproductive / reproductive performance / resorptions / resorptions
[26] = systemic / clinical chemistry / alanine aminotransferase (alt/sgpt) / alanine aminotransferase (alt/sgpt) + systemic / clinical chemistry / …
[27] = systemic / clinical chemistry / alanine aminotransferase (alt/sgpt) / alanine aminotransferase (alt/sgpt)
[28] = systemic / organ weight / liver / relative to body weight
[29] = systemic / organ weight / liver / relative to body weight + systemic / clinical chemistry / alkaline phosphatase (alp/alk) / alkaline …
[30] = reproductive / reproductive performance / postimplantation loss / postimplantation loss + systemic / in life observation / body weight / …
[31] = systemic / in life observation / body weight / body weight + systemic / in life observation / body weight / body weight gain + systemic / in…
[32] = group: maternal, reproductive / reproductive performance / estrous cycle / abnormal + reproductive / reproductive performance / estrous cycle / corpora lutea…
[33] = group: parental, systemic / in life observation / clinical signs / fur (altered appearance) + systemic / in life observation / clinical signs / salivation
[34] = group: parental, systemic / in life observation / clinical signs / fur (altered appearance) + systemic / in life observation / clinical signs / salivation + …
[35] = group: parental, systemic / in life observation / clinical signs / piloerection
[36] = group: parental, systemic / in life observation / clinical signs / piloerection + systemic / in life observation / body weight / body weight + systemic / in …
[37] = group: developmental, systemic / in life observation / body weight / fetal weight
[38] = group: maternal, systemic / in life observation / clinical signs / piloerection
[39] = systemic / clinical chemistry / albumin / albumin + systemic / clinical chemistry / phosphorus / phosphorus + systemic / clinical chemistry…
[40] = systemic / hematology / reticulocyte / reticulocyte + systemic / pathology microscopic / lung / histiocytosis + systemic / hematology / …

Compound `CCCCCCCCCCC(C)c1ccc(S(=O)(=O)O)cc1` (stereo unspecified) [Alkylbenzenesulfonate, linear] has an LEL (mouse [1]; reproductive / offspring survival early / dead fetuses / dead fetuses + systemic / in life observation / clinical signs / irritability) of 50 mg/kg/day, an LOAEL (mouse [1]; systemic / in life observation / body weight / body weight gain + systemic / in life observation / clinical signs / erythema + reproductive…) of 500 mg/kg/day and an NEL (mouse [1]; [21]) of 5 mg/kg/day. For the same compound, the NOAEL (mouse [1]; [21]) was 50 mg/kg/day, the LEL (rabbit [2]; systemic / in life observation / body weight / body weight gain) was 9 mg/kg/day and the LOAEL (rabbit [2]; [21]) was over 90 mg/kg/day. For the same compound, the NEL (rabbit [2]; [21]) was 0.9 mg/kg/day and the NOAEL (rabbit [2]; [21]) was at least 90 mg/kg/day.

Compound `C=CCC1=C(C)[C@@H](OC(=O)[C@@H]2[C@@H](C=C(C)C)C2(C)C)CC1=O` [S-Bioallethrin] has an LEL (rat [3]; [22]) of 20.6 mg/kg/day, an NEL (rat [3]; [22]) of under 20.6 mg/kg/day and an LOAEL (rat [3]; [23]) of 36.6 mg/kg/day. It also gave an NOAEL (rat [3]; [23]) of 18.5 mg/kg/day, an LEL (dog [4]) of 2.7 mg/kg/day and an LOAEL (dog [4]) of 13.7 mg/kg/day. For the same compound, the NEL (dog [4]) was under 2.7 mg/kg/day, the NOAEL (dog [4]) was 2.7 mg/kg/day and the LEL (rat [5]; [24]) was 50 mg/kg/day. It also gave an LOAEL (rat [5]; [24]) of 50 mg/kg/day, an NEL (rat [5]; [24]) of under 50 mg/kg/day and an NOAEL (rat [5]; [24]) of under 50 mg/kg/day. The LOAEL (rat [5]; group: maternal, systemic / in life observation / mortality / mortality) was 195 mg/kg/day, the LEL (rat [5]; [25]) was 195 mg/kg/day and the NEL (rat [5]; [25]) was 125 mg/kg/day. The NOAEL (rat [5]; [25]) was 125 mg/kg/day, the LEL (mouse [6]) was 214 mg/kg/day and the LOAEL (mouse [6]) was over 214 mg/kg/day. For the same compound, the NEL (mouse [6]) was 41.9 mg/kg/day, the NOAEL (mouse [6]) was at least 214 mg/kg/day and the LOAEL (dog [7]; [26]) was 63.2 mg/kg/day. It also gave an NEL (dog [7]; [26]) of 4.5 mg/kg/day, an NOAEL (dog [7]; [26]) of 19.5 mg/kg/day and an LEL (dog [7]; systemic / organ weight / liver / absolute + systemic / organ weight / liver / relative to body weight) of 19.5 mg/kg/day. It also gave an LEL (dog [8]) of 90.5 mg/kg/day, an LOAEL (dog [8]) of 90.5 mg/kg/day and an NEL (dog [8]) of 38.5 mg/kg/day. For the same compound, the NOAEL (dog [8]) was 38.5 mg/kg/day, the LEL (rat [9]; [27]) was 7.2 mg/kg/day and the LOAEL (rat [9]; [27]) was 82.6 mg/kg/day. It also gave an NEL (rat [9]; [27]) of under 7.2 mg/kg/day, an NOAEL (rat [9]; systemic / clinical chemistry / alanine aminotransferase (alt/sgpt) / alanine aminotransferase (alt/sgpt) + systemic / pathology microscopic…) of 27 mg/kg/day and an LEL (mouse [10]; [28]) of 420 mg/kg/day. The LOAEL (mouse [10]; [28]) was 420 mg/kg/day, the NEL (mouse [10]; [29]) was 229 mg/kg/day and the NOAEL (mouse [10]; [29]) was 229 mg/kg/day.

`COc1ccc2cc(S(=O)(=O)N[C@H](CC(=O)N[C@H](Cc3ccc(CN4[C@H](C)CCC[C@@H]4C)cc3)C(=O)N(C)C(C)C)c3ccc4c(c3)OCO4)ccc2c1.Cl` gave an LEL (rat [11]; reproductive / reproductive performance / postimplantation loss / postimplantation loss) of 60 mg/kg/day, an LOAEL (rat [11]; [30]) of over 180 mg/kg/day and an NEL (rat [11]; [30]) of 20 mg/kg/day. For the same compound, the NOAEL (rat [11]; [30]) was at least 180 mg/kg/day, the LOAEL (rat [12]; [31]) was 150 mg/kg/day and the NEL (rat [12]; [31]) was 20 mg/kg/day. For the same compound, the NOAEL (rat [12]; [31]) was 60 mg/kg/day, the LEL (rat [12]; systemic / in life observation / clinical signs / salivation) was 60 mg/kg/day and the LEL (rat [13]; [32]) was 180 mg/kg/day. The LOAEL (rat [13]; [32]) was over 180 mg/kg/day, the NEL (rat [13]; [32]) was 60 mg/kg/day and the NOAEL (rat [13]; [32]) was at least 180 mg/kg/day. The LEL (rat [13]; [33]) was 20 mg/kg/day, the NEL (rat [13]; [33]) was under 20 mg/kg/day and the LOAEL (rat [13]; [34]) was over 180 mg/kg/day. It also gave an NOAEL (rat [13]; [34]) of at least 180 mg/kg/day, an LEL (dog [14]) of 10 mg/kg/day and an LOAEL (dog [14]) of 10 mg/kg/day. The NEL (dog [14]) was under 10 mg/kg/day, the NOAEL (dog [14]) was under 10 mg/kg/day and the LEL (rabbit [15]) was 100 mg/kg/day. It also gave an LOAEL (rabbit [15]) of 100 mg/kg/day, an NEL (rabbit [15]) of 50 mg/kg/day and an NOAEL (rabbit [15]) of 50 mg/kg/day. For the same compound, the LEL (rat [16]; [32]) was 180 mg/kg/day, the LOAEL (rat [16]; [32]) was 180 mg/kg/day and the NEL (rat [16]; [32]) was 60 mg/kg/day. For the same compound, the NOAEL (rat [16]; [32]) was 60 mg/kg/day, the LEL (rat [16]; [35]) was 20 mg/kg/day and the NEL (rat [16]; [35]) was under 20 mg/kg/day. It also gave an LOAEL (rat [16]; [36]) of 180 mg/kg/day, an NOAEL (rat [16]; [36]) of 60 mg/kg/day and an LEL (rabbit [17]) of 120 mg/kg/day. For the same compound, the LOAEL (rabbit [17]) was over 120 mg/kg/day, the NEL (rabbit [17]) was 60 mg/kg/day and the NOAEL (rabbit [17]) was at least 120 mg/kg/day. It also gave an LEL (rat [18]) of 10 mg/kg/day, an LOAEL (rat [18]) of over 100 mg/kg/day and an NEL (rat [18]) of under 10 mg/kg/day. For the same compound, the NOAEL (rat [18]) was at least 100 mg/kg/day, the LEL (rat [19]; [37]) was 120 mg/kg/day and the LOAEL (rat [19]; [37]) was 120 mg/kg/day. It also gave an NEL (rat [19]; [37]) of 60 mg/kg/day, an NOAEL (rat [19]; [37]) of 60 mg/kg/day and an LEL (rat [19]; [38]) of 30 mg/kg/day. For the same compound, the NEL (rat [19]; [38]) was under 30 mg/kg/day, the LOAEL (rat [19]; group: maternal, systemic / in life observation / clinical signs / piloerection + systemic / in life observation / food consumption / food consumption) was 60 mg/kg/day and the NOAEL (rat [19]; group: maternal, systemic / in life observation / clinical signs / piloerection + systemic / in life observation / food consumption / food consumption + …) was 30 mg/kg/day. For the same compound, the LOAEL (rat [20]; [39]) was 60 mg/kg/day, the NOAEL (rat [20]; [39]) was 20 mg/kg/day and the LEL (rat [20]; [40]) was 20 mg/kg/day. For the same compound, the NEL (rat [20]; [40]) was under 20 mg/kg/day.
